# Reference: patent US12662707B2, “MYC amplification drives resistance to pan-RAS inhibitors in pancreatic cancer” (The Trustees of Columbia University in the City of New York, priority 2024, dated 2026)
# What was measured:
# [1] = tested on: pERK, pS6, CC3, Cyclin A2 in KPC tumors; experiment: Pharmacodynamic IHC of KPC tumors (SD, 1 wk, EP); format: in vivo, mouse
# Procedure: Tumor formation in KPC mice was monitored by bi-weekly palpation. […] Treatments were performed every other day via oral gavage for 1 week. […] Following two consecutive ultrasounds, RMC-7977-treated animals were sacrificed either 4 (n=7) or 24 hours (n=4) after last dose and Vehicle-treated animals were sacrificed between 4-24 hours post last dose. Tissue was harvested and preserved as previously described (See Xenograft studies section). Additional group of KPC mice was also treated with a single dose of RMC-7977 (n=10) or Vehicle (n=3) and tissues were harvested at 4 or 24 hours post dose as previously described. […] RNA was extracted from at least 20 mg of indicated OCT or LN2 frozen tissue using an RNeasy Mini Kit (Qiagen, 74104) and a High Throughput Tissue grinder following the manufacturer's protocol. Reverse transcription was carried out using High-Capacity cDNA Reverse Transcription Kit (ABI, 4368814) according to the manufacturer's protocol. The cDNA product was used for qPCR analysis using TaqMan Gene Expression Master Mix (ABI, 4369016) or iTaq Universal SYBR Green Supermix (BioRad, 172-5125) depending on the primer. […] For qPCR, Ct value of MAPK signature genes and 18S were obtained for analysis. Generated Ct value were normalized to 18S, and then the mean relative mRNA expression levels of each sample were normalized to the average of the vehicle control group. Values were plotted as relative change in mRNA expression compared to Vehicle. Means±s.d. were shown. For primer sequences and more information. All tissues were fixed for up to 24 hours using 10% neutral buffered formalin and then moved to 70% ethanol for long term storage. All stainings were performed on 4-μm tissue sections. Sections were deparaffinized using a Leica XL ST5010 autostainer, after which slides were subjected to heat-activated epitope retrieval. […] Slides were further blocked in serum for 1 hour, and primary antibodies were added for overnight incubation at 4° C. […] Following incubation, ImmPACT DAB peroxidase (Vector Laboratories, SK-4100) was used to develop the stain and hematoxylin was used as nuclear counterstain. Stained slides were imaged at 40× magnification. Quantitative analyses of IHC images were performed using ImageJ.
# [2] = RMC-7977 levels in KPCY allograft tumor tissue; format: in vivo; details: C57Bl/6, mouse, oral, 10 mg/kg
# Procedure: Body weights were measured twice a week during the study. Tissue was harvested either at 4 hours or 24 hours after last dose and preserved as previously described (See Xenograft studies section). Whole blood, tumor, colon and skin tissue concentrations of RMC-7977 were determined using liquid chromatography-tandem mass spectrometry (LC-MS/MS) methods. […] After thorough mixing and centrifugation, the supernatant was directly analyzed on a Sciex 6500+ triple quadrupole mass spectrometer equipped with an ACQUITY or Shimadzu UPLC system. An ACQUITY UPLC BEH C18 or C4 […] (2.1×50 mm) column was used with gradient elution for compound separation. RMC-7977 and IS (verapamil or terfenadine) were detected by positive electrospray ionization using multiple reaction monitoring (RMC-7977: m/z 865.4/706.4 or m/z 865.3/833.5; verapamil: m/z 455.2/164.9; terfenadine: m/z 472.3/436.4). […] BA analysis on blood and tissue samples from xenograft models was run at Wuxi AppTec. BA analysis on blood and tissue samples from allograft models and GEMM was run at Revolution Medicines.
# [3] = tested on: KPCY-derived PDAC cell line (6499c4) allografts; experiment: KPCY 6499c4 syngeneic allograft studies; format: in vivo, mouse
# Procedure: All murine allograft studies and procedures related to animal handling, care and treatment were conducted in compliance with all applicable regulations and guidelines of the Institutional Animal Care and Use Committee (IACUC). Female C57BL/6J (strain 000664) mice aged 6-8 weeks from the Jackson Laboratory (Bar Harbor, ME USA) were used for these studies.
# In order to generate subcutaneous (SC) allograft tumors, each mouse was inoculated in the right flank with 3×10^5 of KPCY 6499c4 tumor cells in 0.1 ml of Matrigel:PBS (1:1). Treatments were started when the average tumor size reached 140 mm^3. Tumor size was measured at two dimensions using a digital caliper, and the tumor volume in mm^3 was calculated using the formula: Volume=((width)2×length)/2. Mice on studies were weighed and tumors were measured 2 times a week.
# To generate orthotopic allograft tumors, 5×10^4 KPCY 6499c4 tumor cells in 20 μL PBS/Matrigel mixtures (1:1) were implanted directly into the mouse pancreas through a laparoscopic incision. Treatments were started when the average tumor size reached […]. Body weights were measured and tumor growth was monitored by ultrasound twice weekly.
# Tumor-bearing animals were randomized, assigned into groups (n=9-10/group), and treated daily via oral gavage with Vehicle or RMC-7977 (10 mg/kg, q.d.). For SC KPCY study, survival endpoint was defined as: tumor volume reaching 2000 mm^3 or mice showing any clinical signs, including severe ulceration. For orthotopic KPCY study, survival endpoint was defined as (1) mice showing any clinical signs including hunching or fluid in the abdomen, or (2) tumor dimensions exceeding the imaging frame of the ultrasound. Body weights were measured twice a week during the study. Tissue was harvested either at 4 hours or 24 hours after last dose and preserved as previously described (See Xenograft studies section).
# To stain tissues collected from the KPCY allograft model, a Biocare IntelliPATH automation system was used, and primary antibodies were detected with the MACH4-HRP-polymer Detection System (Biocare, MRH534). Stained slides were scanned and digitized with a TissueScope LE (Huron Digital Pathology) whole slide scanner at 20× magnification. Image analysis was performed using HALO software from Indica Labs.
# [4] = orthotopic CDA model, four hours after treatment
structure (smiles),measurement,setting,value
CCn1c(-c2cc(N3CCN(C4CC4)CC3)cnc2[C@H](C)OC)c2c3cc(ccc31)-c1csc(n1)C[C@H](NC(=O)[C@H]1[C@@H]3COC[C@@H]31)C(=O)N1CCC[C@H](N1)C(=O)OCC(C)(C)C2 [RMC-7977],evaluable EP KPC tumors with full inhibition of pERK expression,"[1]; 6 of 7 tumors, 4 hours post final dose",86%
same,proliferation (Cyclin A2) in EP tumors,"[1]; EP tumors, 24 hours post-dosing",no longer deeply suppressed
same,apoptosis in KPC tumors,"[1]; SD, 1 Wk and EP samples, 4 hours after treatment",wave of apoptosis
same,reduced proliferation (Cyclin A2) in KPC tumors,[1]; after a week of treatment,pronounced and significant
same,proliferation (Cyclin A2) in KPC tumors,[1]; single dose,trend towards reduced proliferation
same,time to restoration of Ras/Mapk signaling,[1]; single dose,≤ 24 h
same,Ras/Mapk signaling (pERK IHC) in KPC tumors,"[1]; single dose, 4 hours after treatment",near-complete inhibition
same,pS6 (S235/S236 and S240/S244) in EP tumors,[1]; the same 6 EP tumors,continued inhibition
same,half-life,[2],3.5 h
same,tumor regressions,[3]; 10 mg/kg q.d.,without inducing significant regressions
same,apoptosis in tumors,[3]; [4],increased apoptosis
same,pERK levels in tumors,[3]; [4],reduced pERK levels
same,tumor growth,"[3]; subcutaneous or orthotopic, immunocompetent C57Bl/6 mice, 10 mg/kg q.d.",diminished tumor growth
same,overall survival,"[3]; subcutaneous or orthotopic, 10 mg/kg q.d.",extended overall survival
